Data on five compounds can be found in patent EP0263214A1, “Tetrapeptide methyl ketone inhibitors of viral proteases” (priority 1986, dated 1988).

Data set [1] relates to human rhinovirus type 1A. It counts as cell-based.
In data set [2] the test system is human poliomyelitis virus type 2. It counts as cell-based.
Data set [3] has as its system Poliovirus type 2. It counts as cell-based.
In data set [4] the test system is HeLa cells.
Data set [5] relates to rhinovirus type 1A. It counts as cell-based.
Data set [6] concerns chymotrypsin. Particulars: inhibitor concentration of 600 ug/rnL; cited from earlier work.
For data set [7], the system named is subtilisin BPN'. Particulars: compared within a series of peptide chloromethyl ketones; cited from earlier work.

Read-outs that look alike come from different tables or passages of the source. * marks the point of attachment. CH2Cl = ClC*

In the case of `CC(=O)[C@H](CC(C)C)NC(=O)[C@H](C)NC(=O)CNC(=O)[C@H](Cc1ccccc1)NC(=O)OC(C)(C)C` [Boc-Phe-Gly-Ala-LeuCH3, reference compound], the “activity in the viral cleavage assay” value in data set [1] and in data set [2] was “failed to show activity” in each case.
For `COC(=O)CCC(=O)N[C@@H](Cc1ccccc1)C(=O)NCC(=O)N[C@@H](CC(C)C)C(=O)N[C@@H](CC(C)C)C(C)=O` [MeOSuc-Phe-Gly-Leu-LeuCH3], the “activity in the viral cleavage assay” value in data set [2] (50 µg/mL) was “active”.
As to `CC(=O)[C@H](CC(C)C)NC(=O)[C@H](C)NC(=O)CNC(=O)[C@H](Cc1ccccc1)NC(=O)OCc1ccccc1` [Z-Phe-Gly-Ala-LeuCH3], the plaque reduction in data set [3] and in data set [5] was more than 90% in each case. The cytotoxicity result in data set [4] is on record as “No cytotoxicity was observed”. Also, in data set [2] (50 µg/mL), the “activity in the viral cleavage assay” value is “active”.
Consider Ac-Leu-Leu-PheCH3, for which the inhibition of chymotrypsin entry in data set [6] was “no inhibition was observed”.
For “acetyl-L-phenylalanyl-L-glycyl-L-alanyl-L-leucyl chloromethyl ketone (Ac-FGAL-CH2Cl; SMILES CC(=O)N[C@@H](Cc1ccccc1)C(=O)NCC(=O)N[C@@H](C)C(=O)N[C@@H](CC(C)C)C(=O)CCl) [Ac-Phe-Gly-Ala-LeuCH2CI]”, the “inhibition of subtilisin BPN'” value in data set [7] is “fastest inhibitor”.
